Measured values reported in article PMC4667779 (Bioorganic & medicinal chemistry, 2014).
Where two headings read alike, the source gives them in different places.

Biological target: Pantothenate synthetase (PanC) from Mtb (Mycobacterium tuberculosis, UniProt P9WIL5)
Format: biochemical

Chain of Pantothenate synthetase (PanC) from Mtb (P9WIL5 whole entry, looked up): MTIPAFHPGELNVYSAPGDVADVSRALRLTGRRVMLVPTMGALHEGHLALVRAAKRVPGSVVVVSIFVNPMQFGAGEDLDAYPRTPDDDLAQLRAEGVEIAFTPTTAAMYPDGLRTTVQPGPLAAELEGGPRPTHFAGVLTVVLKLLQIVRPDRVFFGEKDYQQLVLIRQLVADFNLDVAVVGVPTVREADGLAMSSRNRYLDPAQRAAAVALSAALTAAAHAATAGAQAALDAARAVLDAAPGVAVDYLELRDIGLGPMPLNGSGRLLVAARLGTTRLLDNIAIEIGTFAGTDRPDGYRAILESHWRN

Row | SMILES | fold loss in affinity relative to 1a (ratio of Ki values) | other results
1 | CC(C)(C)[C@@H](O)C(=O)NS(=O)(=O)OC[C@H]1O[C@@H](n2cnc3c(N)ncnc32)[C@H](F)[C@@H]1O [compound 3, 2′-Deoxy-2′-fluoro-5′-O-[N-((R)-2-Hydroxy-3,3-dimethylbutanoyl)sulfamoyl] adenosine] |  | fold loss in affinity relative to 1a: 2–3 fold
2 | CC(C)(CO)[C@@H](O)CNS(=O)(=O)NC[C@H]1O[C@@H](n2cnc3c(N)ncnc32)[C@H](O)[C@@H]1O [compound 5, 5′-Amino-5′-deoxy-5′-N-[N-((R)-2,2-dimethylbutane-1,3-diol-4-yl)sulfamoyl] adenosine] | approximately 13 fold | 
3 | CC(C)(C)[C@@H](O)C(=O)NS(=O)(=O)OC[C@H]1C[C@@H](n2cnc3c(N)ncnc32)[C@H](O)[C@@H]1O [compound 4, 5′-O-[N-((R)-2-Hydroxy-3,3-dimethylbutanoyl)sulfamoyl]aristeromycin] | 2–3 fold | 
4 | CC(C)(C)[C@@H](O)C(=O)NS(=O)(=O)OC[C@H]1O[C@@H](n2cnc3c(N)ncnc32)[C@@H](O)[C@@H]1O [compound 2, 5′-O-[N-((R)-2-Hydroxy-3,3-dimethylbutanoyl)sulfamoyl]vidarabine] | 4–6 fold | 
5 | CC(C)(C)[C@@H](O)C(=O)NS(=O)(=O)OC[C@H]1O[C@@H](n2cnc3c(N)ncnc32)[C@H](O)[C@@H]1O [1a, 5′-O-[N-((R)-2-Hydroxy-3,3-dimethylbutanoyl)sulfamoyl]adenosine] |  | modality of inhibition with respect to pantoic acid (double-reciprocal plots, fixed ATP and saturating β-alanine): competitive inhibitor towards pantoic acid
